Results from patent US20080170990A1, “Methods for Myocardial Imaging in Patients Having a History of Pulmonary Disease” (CV THERAPEUTICS, INC., priority 2006, published 2008).

System: healthy, non-smoking male subjects
Assay: Phase 1 ascending dose study, safety and maximum tolerated dose (Example 3)
Type: in vivo, human
Procedure: The study was performed using thirty-six healthy, non-smoking male subjects between the ages of 18 and 59 and within 15% of ideal body weight.
The study was performed in phase 1, single center, double-blind, randomized, placebo-controlled, crossover, ascending dose study. Randomization was to Regadenoson or placebo, in both supine and standing positions.
Regadenoson was administered as an IV bolus (20 seconds) in ascending doses of […], 10, 20 and 30 μg/kg.
Subjects received either Regadenoson of placebo on Day 1 supine, then crossover treatment on Day 2 supine. On Day 3, subjects received Regadenoson or placebo standing, then crossover treatment on Day 4 standing.
Patient safety was monitored by ECG, laboratory assessments, and collection of vital signs and adverse events.

[1] = 30 μg/kg supine, 4 subjects per group

With `CNC(=O)c1cnn(-c2nc(N)c3ncn([C@@H]4O[C@H](CO)[C@@H](O)[C@H]4O)c3n2)c1` [Regadenoson, (1-{9-[(4S,2R,3R,5R)-3,4-dihydroxy-5-(hydroxymethyl)oxolan-2-yl]-6-aminopurin-2-yl}pyrazol-4-yl)-N-methylcarboxamide] the “number of subjects with severe AE: Palpitation” value [1] was 2, the “number of subjects with severe AE: Syncope” value [1] was 0 and the tolerability (healthy volunteers, single IV bolus) was “well-tolerated”. The mean tolerable dose (standing) was 0.01 mg/kg and the mean tolerable dose (supine) was 0.02 mg/kg.
